Measured values published in US20110251212A1, “PIPERAZINE DERIVATIVES” (SHIONOGI & CO., LTD., priority 2007, published 2011).

How the values were obtained:
[1] = molecular target: T1, mouse NMDA receptor (NR1 subunit and NR2B subunit co-expressed in HEK293 cells) (Mus musculus, UniProt P35438+Q01097); assay: Expression of NMDA receptor and measurement of Ca ion flow in amount (HEK293 cells, Fluo-3/AM, FDSS3000); format: cell-based; conditions: Ca ion flow in induced with glutamic acid 20 μM/glycine 2 μM, read-out: Ca2+ 1050
T1 construct: expressed in transfected cells; host or cells: HEK293 cells, transient, pcDNA 3.1 plasmids
T1 sequence (Q01097 27-1482, other chains not shown): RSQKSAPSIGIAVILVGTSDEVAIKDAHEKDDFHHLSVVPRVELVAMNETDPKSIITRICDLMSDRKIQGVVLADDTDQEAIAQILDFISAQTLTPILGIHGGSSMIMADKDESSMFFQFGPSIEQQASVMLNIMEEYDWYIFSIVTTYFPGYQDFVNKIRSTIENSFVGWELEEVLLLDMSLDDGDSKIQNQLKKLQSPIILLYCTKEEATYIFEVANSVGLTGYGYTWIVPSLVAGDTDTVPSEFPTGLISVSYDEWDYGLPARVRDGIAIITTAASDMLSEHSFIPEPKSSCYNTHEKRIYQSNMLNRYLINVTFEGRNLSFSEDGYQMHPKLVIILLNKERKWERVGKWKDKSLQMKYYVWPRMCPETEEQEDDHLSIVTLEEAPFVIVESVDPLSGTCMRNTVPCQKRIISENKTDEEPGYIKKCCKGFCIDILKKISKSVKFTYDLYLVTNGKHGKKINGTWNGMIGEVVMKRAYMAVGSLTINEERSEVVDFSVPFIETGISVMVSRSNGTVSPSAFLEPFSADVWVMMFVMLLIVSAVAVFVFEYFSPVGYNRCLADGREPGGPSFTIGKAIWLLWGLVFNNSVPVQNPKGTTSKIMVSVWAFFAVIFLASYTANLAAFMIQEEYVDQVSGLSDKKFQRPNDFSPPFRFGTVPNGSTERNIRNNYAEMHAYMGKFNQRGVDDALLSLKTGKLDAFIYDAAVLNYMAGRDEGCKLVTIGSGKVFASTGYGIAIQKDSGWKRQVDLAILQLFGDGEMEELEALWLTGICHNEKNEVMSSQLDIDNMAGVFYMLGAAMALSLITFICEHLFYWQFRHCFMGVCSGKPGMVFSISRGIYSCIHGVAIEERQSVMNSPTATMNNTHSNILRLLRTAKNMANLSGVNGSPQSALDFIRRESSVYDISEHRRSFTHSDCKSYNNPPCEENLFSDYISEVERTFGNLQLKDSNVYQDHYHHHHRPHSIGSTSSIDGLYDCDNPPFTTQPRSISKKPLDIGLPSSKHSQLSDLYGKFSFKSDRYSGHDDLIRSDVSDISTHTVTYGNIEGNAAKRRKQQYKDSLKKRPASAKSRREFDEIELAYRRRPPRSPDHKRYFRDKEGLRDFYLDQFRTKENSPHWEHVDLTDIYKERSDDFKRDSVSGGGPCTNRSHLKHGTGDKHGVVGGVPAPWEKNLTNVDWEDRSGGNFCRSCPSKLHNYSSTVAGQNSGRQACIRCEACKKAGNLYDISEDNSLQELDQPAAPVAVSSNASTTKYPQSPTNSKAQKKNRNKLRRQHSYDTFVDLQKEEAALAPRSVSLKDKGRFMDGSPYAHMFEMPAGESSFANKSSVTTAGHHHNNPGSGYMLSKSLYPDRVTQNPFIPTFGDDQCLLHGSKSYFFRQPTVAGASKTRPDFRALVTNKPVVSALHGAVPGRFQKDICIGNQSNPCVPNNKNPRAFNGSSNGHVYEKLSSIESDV
Method: Test Example 2 Expression of NMDA receptor and measurement of Ca ion flow in amount
A complementary DNA (cDNA) of a mouse NMDA receptor subunit was transiently introduced into HEK293 cells and, after one day from introduction, change in a glutamic acid/glycine-induced intracellular Ca amount was measured using a Ca ion reactive fluorescent dye.
HEK293 cells were cultured and passaged using a modified Dulbecco's Eagle medium (DMEM, low glucose).
20,000/well of HEK293 cells were seeded on a 96-well plate, a NR1 subunit and a NR2B subunit of a NMDA receptor incorporated into pcDNA 3.1 plasmid were transiently introduced into cells, and co-expression of subunits was performed. An introduction amount of a DNA was such that the NR1 subunit was 0.025 μg, and the NR2B subunit was 0.075 μg per well. For cells after introduction, cell death was inhibited using 50 μM of a NMDA receptor antagonist MK-801.
For adjusting a test compound and washing cells, Krebs Ringer Hepes buffer (KRH, Ca: 5 mM) was used.
One day after introduction, the NMDA receptor antagonist MK-801 was washed off using the KRH buffer, and a Ca ion indicative fluorescent dye Fluo-3/AM was made to be taken into cells. Flow in of a Ca ion was induced with glutamic acid 20 μM/glycine 2 μM. Change in a fluorescence amount due to intracellular Ca ion flow in was measured at excitation 480 nm using a fluorescence imaging system FDSS3000.
From a measured value of the test compound, a Ca ion flow in inhibitory rate (%) was obtained by the following equation, and a dose at which flow in is 50% inhibited (IC50) was calculated.
Ca ion flow in inhibitory rate(%)=100−[(fluorescence amount in presence of test compound−background fluorescence amount)/(total fluorescence amount[…]background fluorescence amount)]×100

[2] = molecular target: T2, NMDA Receptor (NR1/NR2B Receptor) (Rattus norvegicus, UniProt P35439+Q00960); assay: Experiment of binding to NMDA receptor (NR1/NR2B receptor), [3H]-Ifenprodil competition, rat cerebral cortex membrane; conditions: [3H]-Ifenprodil 5 nM, GBR-12909 3 μM, ice temperature 120 minutes
T2 construct: this was used as a membrane specimen in an experiment; from tissue; host or cells: rat cerebral cortex membranes
T2 sequence (Q00960 27-1482, other chains not shown): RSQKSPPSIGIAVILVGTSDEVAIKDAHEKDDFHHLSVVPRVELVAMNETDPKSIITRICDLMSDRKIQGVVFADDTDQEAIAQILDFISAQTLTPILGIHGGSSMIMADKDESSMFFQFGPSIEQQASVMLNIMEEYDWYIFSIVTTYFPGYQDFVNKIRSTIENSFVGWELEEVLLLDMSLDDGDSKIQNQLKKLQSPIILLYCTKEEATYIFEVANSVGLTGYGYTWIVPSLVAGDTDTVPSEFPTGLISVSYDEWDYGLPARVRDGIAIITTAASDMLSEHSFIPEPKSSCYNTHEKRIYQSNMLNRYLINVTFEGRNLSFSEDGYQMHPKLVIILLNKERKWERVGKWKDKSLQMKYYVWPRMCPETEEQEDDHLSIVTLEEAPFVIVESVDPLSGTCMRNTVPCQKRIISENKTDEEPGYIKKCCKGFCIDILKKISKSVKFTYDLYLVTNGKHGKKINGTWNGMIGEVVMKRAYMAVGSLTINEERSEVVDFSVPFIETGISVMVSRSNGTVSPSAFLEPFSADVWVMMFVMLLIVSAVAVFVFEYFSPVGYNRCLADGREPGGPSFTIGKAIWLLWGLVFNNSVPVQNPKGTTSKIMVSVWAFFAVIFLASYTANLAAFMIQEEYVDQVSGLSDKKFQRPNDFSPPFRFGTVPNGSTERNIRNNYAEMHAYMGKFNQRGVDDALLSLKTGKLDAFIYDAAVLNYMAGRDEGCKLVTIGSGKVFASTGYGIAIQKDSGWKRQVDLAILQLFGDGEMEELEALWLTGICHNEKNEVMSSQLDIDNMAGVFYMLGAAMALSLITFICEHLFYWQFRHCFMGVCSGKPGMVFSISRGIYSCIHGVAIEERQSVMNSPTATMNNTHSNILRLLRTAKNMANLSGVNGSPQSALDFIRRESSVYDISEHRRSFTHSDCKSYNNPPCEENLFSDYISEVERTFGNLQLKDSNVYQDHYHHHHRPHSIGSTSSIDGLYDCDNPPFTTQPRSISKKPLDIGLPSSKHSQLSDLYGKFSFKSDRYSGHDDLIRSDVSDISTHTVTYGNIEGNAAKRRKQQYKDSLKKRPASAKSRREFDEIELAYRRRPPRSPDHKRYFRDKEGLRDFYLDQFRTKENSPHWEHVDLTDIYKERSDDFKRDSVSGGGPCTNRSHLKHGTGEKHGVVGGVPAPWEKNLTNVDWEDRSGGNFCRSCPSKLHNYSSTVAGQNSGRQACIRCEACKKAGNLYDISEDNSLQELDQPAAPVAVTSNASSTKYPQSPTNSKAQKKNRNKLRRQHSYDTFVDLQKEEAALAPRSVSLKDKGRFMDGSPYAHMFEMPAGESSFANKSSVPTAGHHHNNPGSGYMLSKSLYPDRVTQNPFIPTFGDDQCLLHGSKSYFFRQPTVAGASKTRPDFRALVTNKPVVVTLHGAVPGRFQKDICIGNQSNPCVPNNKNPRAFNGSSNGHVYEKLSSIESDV
Method: Using Ifenprodil which is a NR1/NR2B subtype receptor-specific antagonist as a ligand, an experiment of receptor competition with a test compound was performed.
A male Slc:Wistar rat was used as an animal, a decapitated brain was isolated, and cerebral cortex was fractionated. The cerebral cortex was homogenized with a 20-fold amount of an ice-cooled 50 mM Tris/HCl buffer (pH 7.4), and centrifuged at 4° C. and 27,500×g for 10 minutes. The resulting precipitate was suspended in the same buffer, and the suspension was centrifuged again. This procedure was repeated three times, and the resulting precipitate was suspended in a buffer, and stored at −80° C. Immediately before an experiment, the frozen suspension was thawed at room temperature, and centrifuged at 4° C. and 27,500×g for 10 minutes, and the resulting precipitate was suspended in a buffer. The suspension was further diluted 10-fold with a buffer, and this was used as a membrane specimen in an experiment.
In a binding experiment, to 470 μl of the membrane specimen were added 10 μl of different concentrations of a test compound, 10 μl of a labeled ligand [3H]-Ifenprodil and 10 μl of GBR-12909, and this was incubated at an ice temperature for 120 minutes. A concentration of [3H]-Ifenprodil of the labeled ligand was finally 5 nM, and a concentration of GBR-12909 was finally 3 μM. For measuring a total binding amount, DMSO as a solvent was used and, for measuring a non-specific binding amount, 100 μM of Ifenprodil was used. In addition, GBR-12909 was added in order to block binding of [3H]-Ifenprodil to a non-polyamine-sensitive site. After incubation, a bound body and a free body were separated using a Whatman GF/C filter (manufactured by Whatman), and the filter was washed with 2.5 ml of an ice-cooled buffer four times. The filter was immersed in a liquid scintillation (Clear-sol I, manufactured by Nacalai tesque) in a vial bottle, and radioactivity (dpm) was measured with a liquid scintillation counter. From a measured value, a binding inhibition rate (%) was obtained by the following equation, and a dose at which binding is inhibited 50% (IC50) was calculated. A formula of GBR-12909 (Vanoxerine) is shown below.
Binding inhibition rate(%)=100−[(binding amount in presence of test compound−non-specific amount)/(total binding amount−non-specific binding amount)]×100

Compound | IC50 [1] [nM] | melting point [°C] | IC50 [2] [µM]
O=C(CNc1ccc2[nH]c(=O)oc2c1)N1CCN(c2ccc(F)c(Cl)c2)CC1 [Compound I-3] | – | 130 to 132 | –
C[C@@H]1CN(c2ccc(Cl)c(F)c2)CCN1C(=O)CNc1ccc2[nH]c(=O)oc2c1 [Compound I-6] | 20 | 224 to 226 | 0.026
O=C(CNc1ccc2[nH]c(=O)oc2c1)N1CCN(c2ccc(Cl)c(F)c2)CC1 [Compound I-1] | 49 | 136 to 138 | 0.149
O=C(CCNc1ccc2[nH]c(=O)oc2c1)N1CCN(c2ccc(Cl)c(F)c2)CC1 [Compound I-2] | – | 187 to 189 | –

The next lines start with the values.

IC50 [1] [nM] | melting point [°C] | IC50 [2] [µM] | Compound
89 | 194 to 196 | – | COc1c(F)cc(N2CCN(C(=O)CNc3ccc4[nH]c(=O)oc4c3)CC2)cc1F [Compound I-7]
– | 223 to 225 | – | O=C(CN1CCN(c2ccc(Cl)cc2)CC1=O)Nc1ccc2[nH]c(=O)oc2c1 [Compound I-67]
– | 112 to 114 | – | Cc1cc(N2CCN(C(=O)CNc3ccc4[nH]c(=O)oc4c3)C[C@H]2C)ccc1Cl [Compound I-63]
14 | 123 to 124 | 0.04 | Cc1cc(N2CCN(C(=O)C(=O)Nc3ccc4[nH]c(=O)oc4c3)[C@H](C)C2)ccc1Cl [Compound I-40]
